These are literature values, as cited in PMC11071064 (Nuclear medicine and biology, 2022).

The conditions of series [1]: pH 7.4.
The test system of series [2] is RIPK1. The following applies: read-out: IC50 for binding toward RIPK1.
Assay in series [3]: not given
The source holds these as a separate data set.

For series [4], the system named is RIPK1. The following applies: read-out: EC50 (potency).

As to `CN1C(=O)[C@@H](NC(=O)c2n[nH]c(Cc3ccccc3)n2)COc2ccccc21` [Compound 4], the “log D” value is 3.8. For the same compound, in series [1], the solubility is listed as ~ 450 μM. Besides, the concentration for half-maximal inhibition (IC50) with RIPK1 [2] is 1 nM.
For the compound `CN1C(=O)C(Cc2c[nH]c3ccccc23)NC1=S` (stereo not shown) [Nec-1], the “metabolic stability t1/2” value in series [3] is reported as less than 5 min. In addition, the EC50 with RIPK1 [4] is 490 nM.
Take `CN1C(=O)NC(Cc2c[nH]c3c(Cl)cccc23)C1=O` (stereo not shown) [Nec-1s]: the “metabolic stability t1/2” value in series [3] was less than 5 min. For the same compound, in the series on RIPK1 [4], the EC50 is 210 nM.
